Counter-ions that a name gives are not always drawn. Like-named read-outs stand apart in the source and are kept apart here.
Columns and labels:
[1] = tested on: HCV NS3 protease; assay: HCV NS3 protease inhibitor EC50 (background statement); format: cell-based
[2] = tested on: HCV genotype-1; settings: for Below Limit of Quantification at D 28 (number of patients) / Below Limit of Quantification at D 28 (percent of patients): less than 25 IU per ml of serum; for Virologic rebound during treatment (patients with rebound/patients in group) / Virologic rebound during treatment: first 28 days
Protocol: All patients were monitored for safety and tolerability of study drugs. The primary endpoint was a ≧2 log 10 reduction in HCV viral load (VL) from baseline at any time up to Day 28. Plasma HCV-RNA levels were measured using the Roche COBAS® TaqMan® assay (LLOQ 25 IU/mL). The treatment experienced patients in this study included P+R null responders and partial respoders. After Day 28, at the discretion of the investigator, patients could continue to receive standard of care treatment, i.e., P+R.

[3] = tested on: HCV genotype-1; assay: Clinical study with treatment-naive patients: monotherapy 14 days, then triple combination with P+R 14 days; settings: for VL rebound during treatment: first 14 days of monotherapy, all dose groups
Protocol: Plasma HCV-RNA levels were measured with Roche COBAS® TaqMan® assay (LLOQ 25 IU/m L). After Day 28, at the discretion of the investigator, patients could continue to receive standard of care treatment, i.e., P+R.

[4] = Trough plasma concentration of Compound (1) with or without two-fold first loading dose; format: in vivo, human; settings: TE patients; for Mean steady state trough of Days 10-29 / Geometric mean trough plasma concentration: + P+R
Excerpt: Trough (pre-dose) plasma samples were collected on Days 2, 3, 4, 6, 10, 14, 21, 28 and 29 following the initiation of combination treatment on Day 1.

[5] = 240 mg QD SGC with first 480 mg loading dose, Day 3
[6] = 240 mg QD SGC with first 480 mg loading dose, Day 4
[7] = 240 mg QD SGC with first 480 mg loading dose, Day 6
[8] = 240 mg QD solution (PiB) without loading dose, Day 3
[9] = 240 mg QD solution (PiB) without loading dose, Day 4
[10] = 240 mg QD solution (PiB) without loading dose, Day 6

## C=C[C@@H]1C[C@]1(NC(=O)[C@@H]1C[C@H](Oc2cc(-c3csc(NC(=O)C(C)C)n3)nc3c(Br)c(OC)ccc23)CN1C(=O)[C@@H](NC(=O)OC1CCCC1)C(C)(C)C)C(=O)O [Compound (1) sodium salt]
[1]
  EC50: […]
[2]; 48 mg QD, N = 6, + P+R
  Maximal decline D 1-14: 4.4 ×log10
[2]; 48 mg qd + P+R
  Median (range) maximal decline in VL during 28 day combination therapy: […]
  Virologic rebound during treatment (patients with rebound/patients in group): […]
[2]; 120 mg QD, N = 7, + P+R
  Maximal decline D 1-14: 4.5 ×log10
  Mean Decline at D 14: 4.3 ×log10
[2]; 120 mg qd + P+R
  Median (range) maximal decline in VL during 28 day combination therapy: […]
  Virologic rebound during treatment (patients with rebound/patients in group): […]
[2]; 240 mg QD, N = 6, + P+R
  Maximal decline D 1-14: […]
  Mean Decline at D 14: […]
  Mean decline at D 6: […]
  Below Limit of Quantification at D 28 (number of patients): […]
  Below Limit of Quantification at D 28 (percent of patients): […]
[2]; 240 mg qd + P+R
  Median (range) maximal decline in VL during 28 day combination therapy: […]
[2]; 240 mg qd + P+R, listed as Compound (1) (sodium salt)
  Virologic rebound during treatment: no rebound
[2]; 48-240 mg qd + P+R, 28 days
  Serious or severe adverse events: no serious or severe adverse events
[2]; AE: anxiety
  Discontinuation of treatment due to an AE: One subject discontinued treatment
[2]; human, in vivo
  VL decline with triple combination therapy: […]
[2]; one patient of the 120 mg dose group, R155K mutant, no rebound
  VL plateau by Day 28: […]
[2]; treatment-experienced pts, 48-240 mg qd + P+R, 28 days
  Tolerability: well tolerated
[3]; 20 mg dose cohort, 6 days after initiating P+R
  Serious AE: One serious AE, asthenia
[3]; 20 mg qd
  Median (range) maximal reduction in VL during 14 day monotherapy: […]
[3]; 48 mg qd
  Median (range) maximal reduction in VL during 14 day monotherapy: […]
[3]; 120 mg qd
  Median (range) maximal reduction in VL during 14 day monotherapy: […]
[3]; 240 mg qd
  Median (range) maximal reduction in VL during 14 day monotherapy: […]
[3]; all pts on drug except 1 pt in the 20 mg cohort
  VL decline during the monotherapy period: […]
[3]; all pts, typical
  Time of maximal VL decline after starting: […]
[3]; during monotherapy
  Discontinuation of treatment due to adverse events: No pts discontinued treatment
[3]
  VL rebound during treatment: a majority of patients
[3]; listed as Compound (1) (sodium salt)
  VL rebound during treatment: a majority of the patients
[3]; treatment-naive pts, 20-240 mg qd, monotherapy 14 days then + P+R 14 days
  Tolerability: well tolerated

## C=C[C@@H]1C[C@]1(NC(=O)[C@@H]1C[C@H](Oc2cc(-c3csc(NC(=O)C(C)C)n3)nc3c(Br)c(OC)ccc23)CN1C(=O)[C@@H](NC(=O)OC1CCCC1)C(C)(C)C)C(=O)O [Compound (1)]
[2]; 240 mg qd + P+R
  Virologic rebound during treatment: No rebound
[2]; sixth pt of the 240 mg qd cohort
  Decline in VL from baseline on Day 28: […]
[4]; 240 mg QD SGC with first 480 mg loading dose
  Mean steady state trough of Days 10-29: 5,774
[4]; [5]
  % of mean steady state trough of Days 10-29: 81.2%
[4]; [6]
  Geometric mean trough plasma concentration: 5,640
  % of mean steady state trough of Days 10-29: 97.7%
[4]; [7]
  Geometric mean trough plasma concentration: 7,060
  % of mean steady state trough of Days 10-29: 122.3%
[4]; 240 mg QD SGC with first 480 mg loading dose, Day 10
  Geometric mean trough plasma concentration: 6,580
[4]; 240 mg QD SGC with first 480 mg loading dose, Day 14
  Geometric mean trough plasma concentration: 5,590
[4]; 240 mg QD SGC with first 480 mg loading dose, Day 21
  Geometric mean trough plasma concentration: 5,410
[4]; 240 mg QD SGC with first 480 mg loading dose, Day 28
  Geometric mean trough plasma concentration: 5,960
[4]; 240 mg QD SGC with first 480 mg loading dose, Day 29
  Geometric mean trough plasma concentration: […]
[4]; 240 mg QD SGC with first 480 mg loading dose, Day 2
  % of mean steady state trough of Days 10-29: […]
[4]; 240 mg QD soft gelatin capsules (SGC) with a first 480 mg loading dose, Day 2
  Geometric mean trough plasma concentration: 3,470
[4]; 240 mg QD solution (PiB) without a first 480 mg loading dose, Day 2
  Geometric mean trough plasma concentration: 710
[4]; 240 mg QD solution (PiB) without loading dose
  Mean steady state trough of Days 10-29: […]
[4]; [8]
  % of mean steady state trough of Days 10-29: 49.2%
[4]; [9]
  Geometric mean trough plasma concentration: 2,420
[4]; [10]
  Geometric mean trough plasma concentration: 2,950
  % of mean steady state trough of Days 10-29: 87.4%
[4]; 240 mg QD solution (PiB) without loading dose, Day 10
  Geometric mean trough plasma concentration: 2,930
[4]; 240 mg QD solution (PiB) without loading dose, Day 14
  Geometric mean trough plasma concentration: 2,850
[4]; 240 mg QD solution (PiB) without loading dose, Day 21
  Geometric mean trough plasma concentration: […]
[4]; 240 mg QD solution (PiB) without loading dose, Day 28
  Geometric mean trough plasma concentration: […]
[4]; 240 mg QD solution (PiB) without loading dose, Day 29
  Geometric mean trough plasma concentration: […]
[4]; 240 mg QD solution (PiB) without loading dose, Day 2
  % of mean steady state trough of Days 10-29: […]
